Source: article PMC8213057, “Targeting ALK2: An Open Science Approach to Developing Therapeutics for the Treatment of Diffuse Intrinsic Pontine Glioma” (Journal of Medicinal Chemistry, 2020)

Tests used:
[1] = target: MSSK1/STK23 (Homo sapiens, UniProt Q9UPE1); experiment: biochemical; settings: read-out: % enzyme activity, 1 μM; Run 1, Run 2
[2] = target: T1, TXK (Homo sapiens, UniProt P42681); experiment: biochemical; settings: read-out: % enzyme activity, 1 μM; Run 1, Run 2
T1 sequence (P42681 1-527): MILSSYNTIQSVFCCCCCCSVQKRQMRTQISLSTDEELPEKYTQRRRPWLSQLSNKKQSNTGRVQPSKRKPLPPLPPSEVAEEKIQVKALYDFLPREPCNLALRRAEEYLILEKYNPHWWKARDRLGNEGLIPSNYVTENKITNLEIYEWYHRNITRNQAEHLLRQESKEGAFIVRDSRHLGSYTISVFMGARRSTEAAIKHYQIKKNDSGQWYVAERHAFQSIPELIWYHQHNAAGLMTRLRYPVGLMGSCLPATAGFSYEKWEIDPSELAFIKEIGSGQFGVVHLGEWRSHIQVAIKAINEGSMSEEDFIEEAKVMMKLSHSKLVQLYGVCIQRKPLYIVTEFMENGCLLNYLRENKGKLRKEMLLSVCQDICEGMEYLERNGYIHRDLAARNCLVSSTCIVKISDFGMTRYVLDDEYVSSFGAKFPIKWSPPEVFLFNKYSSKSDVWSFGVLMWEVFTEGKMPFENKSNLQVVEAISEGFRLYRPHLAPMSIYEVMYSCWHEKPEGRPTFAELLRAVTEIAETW

[3] = target: EPHA5 (Homo sapiens, UniProt P54756); settings: 1 μM; Run 1, Run 2
[4] = target: HIPK1 (Homo sapiens, UniProt Q86Z02); settings: 1 μM; Run 1, Run 2
[5] = target: T2, MEK5 (Homo sapiens, UniProt Q13163); settings: 1 μM; Run 1, Run 2
T2 sequence (Q13163 1-448): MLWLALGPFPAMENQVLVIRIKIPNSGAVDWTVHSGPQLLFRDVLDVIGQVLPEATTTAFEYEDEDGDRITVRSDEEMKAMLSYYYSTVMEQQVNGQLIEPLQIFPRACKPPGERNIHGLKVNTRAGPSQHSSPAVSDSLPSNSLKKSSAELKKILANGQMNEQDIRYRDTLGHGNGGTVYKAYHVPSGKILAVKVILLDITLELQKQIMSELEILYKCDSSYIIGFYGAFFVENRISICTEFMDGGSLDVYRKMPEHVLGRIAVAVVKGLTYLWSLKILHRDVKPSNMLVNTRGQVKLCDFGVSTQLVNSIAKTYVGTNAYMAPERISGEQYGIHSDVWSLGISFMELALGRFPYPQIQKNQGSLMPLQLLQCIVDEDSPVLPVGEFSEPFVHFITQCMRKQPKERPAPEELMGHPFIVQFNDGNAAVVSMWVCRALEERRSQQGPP

[6] = target: T3, NEK5 (Homo sapiens, UniProt Q6P3R8); experiment: biochemical; settings: read-out: % enzyme activity, 1 μM; Run 1, Run 2
T3 sequence (Q6P3R8 1-708): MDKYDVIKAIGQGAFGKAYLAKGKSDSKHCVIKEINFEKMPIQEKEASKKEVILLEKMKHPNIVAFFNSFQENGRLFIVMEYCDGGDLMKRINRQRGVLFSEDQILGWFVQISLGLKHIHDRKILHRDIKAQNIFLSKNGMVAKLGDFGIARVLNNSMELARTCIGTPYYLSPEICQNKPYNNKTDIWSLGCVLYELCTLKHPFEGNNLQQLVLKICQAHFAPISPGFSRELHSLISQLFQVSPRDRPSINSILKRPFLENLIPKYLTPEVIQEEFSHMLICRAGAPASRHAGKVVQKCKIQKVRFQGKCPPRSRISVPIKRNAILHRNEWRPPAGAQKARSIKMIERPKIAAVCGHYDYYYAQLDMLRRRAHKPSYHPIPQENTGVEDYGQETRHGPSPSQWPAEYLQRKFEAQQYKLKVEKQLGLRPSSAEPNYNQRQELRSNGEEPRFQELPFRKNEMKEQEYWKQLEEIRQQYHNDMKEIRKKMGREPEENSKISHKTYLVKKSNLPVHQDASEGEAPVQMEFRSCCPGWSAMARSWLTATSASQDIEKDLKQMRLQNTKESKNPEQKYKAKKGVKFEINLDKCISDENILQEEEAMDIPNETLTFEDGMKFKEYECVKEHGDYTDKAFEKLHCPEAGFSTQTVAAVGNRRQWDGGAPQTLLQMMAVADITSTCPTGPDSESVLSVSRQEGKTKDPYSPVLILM

[7] = target: T4, CHK1 (Homo sapiens, UniProt O14757); experiment: biochemical; settings: read-out: % enzyme activity, 1 μM; Run 1, Run 2
T4 sequence (O14757 1-476): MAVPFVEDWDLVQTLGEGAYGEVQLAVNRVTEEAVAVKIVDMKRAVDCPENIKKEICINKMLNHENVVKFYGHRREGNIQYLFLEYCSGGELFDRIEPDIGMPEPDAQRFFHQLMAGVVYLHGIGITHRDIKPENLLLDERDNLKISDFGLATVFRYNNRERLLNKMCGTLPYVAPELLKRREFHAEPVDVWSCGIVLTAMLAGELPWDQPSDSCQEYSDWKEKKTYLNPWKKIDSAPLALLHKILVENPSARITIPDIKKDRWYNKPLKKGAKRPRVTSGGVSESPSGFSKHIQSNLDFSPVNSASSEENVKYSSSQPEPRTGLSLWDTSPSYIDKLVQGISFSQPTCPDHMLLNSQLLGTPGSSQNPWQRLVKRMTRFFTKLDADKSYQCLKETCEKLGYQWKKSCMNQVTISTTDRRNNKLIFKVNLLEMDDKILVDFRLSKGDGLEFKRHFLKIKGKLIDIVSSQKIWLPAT

[8] = target: T5, P38g (Homo sapiens, UniProt P53778); experiment: biochemical; settings: read-out: % enzyme activity, 1 μM; Run 1, Run 2
T5 sequence (P53778 1-367): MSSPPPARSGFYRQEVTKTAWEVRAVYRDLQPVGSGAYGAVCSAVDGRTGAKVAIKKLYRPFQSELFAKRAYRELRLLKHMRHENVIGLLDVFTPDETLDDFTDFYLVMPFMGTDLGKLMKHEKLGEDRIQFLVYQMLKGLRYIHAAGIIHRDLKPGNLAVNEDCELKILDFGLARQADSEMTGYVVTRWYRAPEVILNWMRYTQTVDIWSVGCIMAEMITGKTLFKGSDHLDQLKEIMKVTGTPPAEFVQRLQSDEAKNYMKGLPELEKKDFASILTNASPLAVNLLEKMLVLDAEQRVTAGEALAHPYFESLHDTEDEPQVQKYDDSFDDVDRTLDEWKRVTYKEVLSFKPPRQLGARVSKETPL

[9] = target: CDK7/cyclin H (Homo sapiens, UniProt P50613); settings: 1 μM; Run 1, Run 2
CDK7/cyclin H, sequence (P50613 whole entry): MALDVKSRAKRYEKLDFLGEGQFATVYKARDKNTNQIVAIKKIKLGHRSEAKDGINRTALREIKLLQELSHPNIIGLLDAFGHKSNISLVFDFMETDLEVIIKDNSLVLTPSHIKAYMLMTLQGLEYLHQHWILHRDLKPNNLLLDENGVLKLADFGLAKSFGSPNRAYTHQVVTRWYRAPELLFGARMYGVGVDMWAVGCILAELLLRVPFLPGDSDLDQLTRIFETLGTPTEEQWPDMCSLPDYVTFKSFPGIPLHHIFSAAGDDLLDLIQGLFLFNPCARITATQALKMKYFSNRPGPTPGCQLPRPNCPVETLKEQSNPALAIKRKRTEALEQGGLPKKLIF
CDK7/cyclin H, sequence (P51946 whole entry partner): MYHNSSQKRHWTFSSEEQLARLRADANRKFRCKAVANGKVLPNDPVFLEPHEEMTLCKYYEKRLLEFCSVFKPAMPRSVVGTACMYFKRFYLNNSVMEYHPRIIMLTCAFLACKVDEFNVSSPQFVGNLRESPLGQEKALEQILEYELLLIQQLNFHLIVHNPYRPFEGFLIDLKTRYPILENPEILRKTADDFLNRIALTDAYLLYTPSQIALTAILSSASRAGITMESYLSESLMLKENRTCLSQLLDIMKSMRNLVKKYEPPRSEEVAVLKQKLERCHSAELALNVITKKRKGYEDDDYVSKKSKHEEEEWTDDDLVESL
CDK7/cyclin H, sequence (P51948 whole entry partner): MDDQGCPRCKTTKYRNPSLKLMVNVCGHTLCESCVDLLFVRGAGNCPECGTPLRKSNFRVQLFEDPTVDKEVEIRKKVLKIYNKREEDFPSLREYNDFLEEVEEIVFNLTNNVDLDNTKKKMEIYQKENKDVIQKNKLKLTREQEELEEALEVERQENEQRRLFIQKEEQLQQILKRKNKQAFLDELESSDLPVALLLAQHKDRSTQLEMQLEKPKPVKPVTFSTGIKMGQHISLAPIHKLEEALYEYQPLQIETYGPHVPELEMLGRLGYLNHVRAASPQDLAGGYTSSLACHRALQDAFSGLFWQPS

HIPK1, sequence (Q86Z02 whole entry): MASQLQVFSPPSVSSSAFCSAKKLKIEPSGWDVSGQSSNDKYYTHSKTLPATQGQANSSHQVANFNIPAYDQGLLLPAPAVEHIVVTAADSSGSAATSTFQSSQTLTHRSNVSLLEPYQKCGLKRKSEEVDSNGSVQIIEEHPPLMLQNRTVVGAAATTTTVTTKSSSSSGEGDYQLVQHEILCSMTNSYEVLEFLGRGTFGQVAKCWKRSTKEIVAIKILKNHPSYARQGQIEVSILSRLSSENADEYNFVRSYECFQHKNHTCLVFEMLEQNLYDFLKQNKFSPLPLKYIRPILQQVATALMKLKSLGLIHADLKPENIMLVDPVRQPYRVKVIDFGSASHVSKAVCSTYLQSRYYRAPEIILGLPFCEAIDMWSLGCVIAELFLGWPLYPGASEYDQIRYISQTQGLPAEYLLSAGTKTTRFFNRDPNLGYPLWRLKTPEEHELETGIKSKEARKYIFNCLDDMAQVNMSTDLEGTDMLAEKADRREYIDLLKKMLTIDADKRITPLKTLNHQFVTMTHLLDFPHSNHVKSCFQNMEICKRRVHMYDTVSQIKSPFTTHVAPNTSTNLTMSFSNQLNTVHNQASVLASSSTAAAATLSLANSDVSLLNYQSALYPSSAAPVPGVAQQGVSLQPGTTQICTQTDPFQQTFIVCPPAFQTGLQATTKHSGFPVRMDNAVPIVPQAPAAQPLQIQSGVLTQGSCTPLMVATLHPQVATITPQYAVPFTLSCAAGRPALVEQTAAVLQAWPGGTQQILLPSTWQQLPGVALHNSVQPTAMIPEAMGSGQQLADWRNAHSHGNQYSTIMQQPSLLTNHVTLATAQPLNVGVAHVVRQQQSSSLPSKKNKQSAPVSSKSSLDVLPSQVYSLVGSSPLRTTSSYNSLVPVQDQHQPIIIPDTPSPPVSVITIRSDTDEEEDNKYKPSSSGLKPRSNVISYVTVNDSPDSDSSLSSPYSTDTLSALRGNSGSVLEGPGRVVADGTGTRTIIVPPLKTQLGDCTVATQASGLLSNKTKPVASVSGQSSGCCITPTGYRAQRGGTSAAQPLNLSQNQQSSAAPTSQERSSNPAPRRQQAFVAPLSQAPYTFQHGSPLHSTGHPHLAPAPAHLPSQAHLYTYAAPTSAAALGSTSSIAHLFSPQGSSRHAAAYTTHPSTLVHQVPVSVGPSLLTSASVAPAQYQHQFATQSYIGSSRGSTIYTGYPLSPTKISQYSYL
EPHA5, sequence (P54756 25-1037): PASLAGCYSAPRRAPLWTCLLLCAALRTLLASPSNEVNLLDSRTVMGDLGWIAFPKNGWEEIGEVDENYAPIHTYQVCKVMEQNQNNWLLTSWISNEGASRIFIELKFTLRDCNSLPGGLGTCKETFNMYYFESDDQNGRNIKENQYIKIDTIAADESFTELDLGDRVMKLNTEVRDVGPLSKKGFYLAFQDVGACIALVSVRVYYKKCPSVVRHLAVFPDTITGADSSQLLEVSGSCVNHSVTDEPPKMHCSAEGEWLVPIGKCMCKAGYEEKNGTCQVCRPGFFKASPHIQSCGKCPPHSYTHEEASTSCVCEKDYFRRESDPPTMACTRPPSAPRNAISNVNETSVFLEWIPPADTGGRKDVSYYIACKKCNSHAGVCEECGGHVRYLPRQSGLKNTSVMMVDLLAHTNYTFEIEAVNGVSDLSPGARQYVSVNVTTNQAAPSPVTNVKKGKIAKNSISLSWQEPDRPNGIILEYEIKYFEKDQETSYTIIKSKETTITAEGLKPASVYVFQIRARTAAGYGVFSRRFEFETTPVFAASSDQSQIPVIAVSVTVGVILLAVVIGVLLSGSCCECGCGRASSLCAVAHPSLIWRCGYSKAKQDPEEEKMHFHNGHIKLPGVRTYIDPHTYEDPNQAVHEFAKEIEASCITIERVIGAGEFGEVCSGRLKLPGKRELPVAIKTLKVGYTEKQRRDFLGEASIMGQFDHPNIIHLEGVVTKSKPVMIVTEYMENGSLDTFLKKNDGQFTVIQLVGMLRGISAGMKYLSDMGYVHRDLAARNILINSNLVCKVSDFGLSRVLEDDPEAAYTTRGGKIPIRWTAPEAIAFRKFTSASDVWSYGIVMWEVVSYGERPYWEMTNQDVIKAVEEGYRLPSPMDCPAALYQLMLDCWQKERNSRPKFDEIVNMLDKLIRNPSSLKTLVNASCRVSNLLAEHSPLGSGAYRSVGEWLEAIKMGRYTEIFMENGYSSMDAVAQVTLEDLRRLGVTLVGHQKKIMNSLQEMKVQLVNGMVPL
MSSK1/STK23, sequence (Q9UPE1 whole entry): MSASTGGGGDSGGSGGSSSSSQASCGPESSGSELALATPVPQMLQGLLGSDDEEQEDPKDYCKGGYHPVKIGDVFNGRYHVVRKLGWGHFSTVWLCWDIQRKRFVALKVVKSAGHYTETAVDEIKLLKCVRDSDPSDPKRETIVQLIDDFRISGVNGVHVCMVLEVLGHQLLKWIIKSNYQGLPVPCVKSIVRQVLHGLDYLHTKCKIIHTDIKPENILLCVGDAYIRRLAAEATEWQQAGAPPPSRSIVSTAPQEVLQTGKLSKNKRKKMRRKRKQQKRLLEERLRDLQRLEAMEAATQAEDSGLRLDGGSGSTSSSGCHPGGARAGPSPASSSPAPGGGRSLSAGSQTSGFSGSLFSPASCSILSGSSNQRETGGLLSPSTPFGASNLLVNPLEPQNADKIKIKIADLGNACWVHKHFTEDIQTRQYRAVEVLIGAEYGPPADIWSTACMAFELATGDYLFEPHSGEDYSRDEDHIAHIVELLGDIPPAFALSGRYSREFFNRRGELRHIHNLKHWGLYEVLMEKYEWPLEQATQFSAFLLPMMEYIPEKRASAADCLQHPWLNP

COc1cc(-c2cncc(-c3ccc(N4CCN(C)CC4)cc3)c2C)cc(F)c1C(N)=O [Compound 26a, 2-Fluoro-6-methoxy-4-(4-methyl-5-(4-(4-methylpiperazin-1-yl)phenyl)pyridin-3-yl)benzamide]
remaining activity at 1 µM [1]: 99.3%
remaining activity at 1 µM [2]: 101%
% enzyme activity [3]: 90.37%
% enzyme activity [4]: 102.36%
% enzyme activity [5]: 85.95%
remaining activity at 1 µM [6]: 98.7%
remaining activity at 1 µM [7]: 98.2%
remaining activity at 1 µM [8]: 110%
% enzyme activity [9]: 93.27%

COc1cc(-c2cncc(-c3ccc(N4C[C@@H](C)N(C)[C@@H](C)C4)cc3)c2C)cc(F)c1C(N)=O [Compound 26c, 2-Fluoro-6-methoxy-4-(4-methyl-5-(4-((3R,5S)-3,4,5-trimethylpiperazin-1-yl)phenyl)pyridin-3-yl)benzamide]
remaining activity at 1 µM [1]: 99.8%
remaining activity at 1 µM [2]: 98.2%
% enzyme activity [3]: 90.66%
% enzyme activity [4]: 96.64%
% enzyme activity [5]: 92.97%
remaining activity at 1 µM [6]: 93.2%
remaining activity at 1 µM [7]: 117%
remaining activity at 1 µM [8]: 108%
% enzyme activity [9]: 95.50%
